Data from patent US10829458B2 (Araxes Pharma LLC, priority 2015, dated 2020).

target: T1, KRAS G12C 1-169, his-tagged protein, GDP-loaded (Homo sapiens, UniProt P01116, G12C); test: Biochemical assay: covalent modification of KRAS G12C measured by mass spectrometry (RapidFire/TOF or Q-Exactive); settings: covalent binding to KRAS G12C; compounds of structure (I)
T1 construct: KRAS G12C 1-169, his-tagged protein, GDP-loaded
Experimental: Test compounds were prepared as 10 mM stock solutions in DMSO (Fisher cat #BP-231-100). KRAS G12C 1-169, his-tagged protein, GDP-loaded was diluted to 2 μm in buffer (20 mM Hepes, 150 mM NaCl, 1 mM MgCl2). Compounds were tested for activity as follows:
Compounds were diluted to 50× final test concentration in DMSO in 96-well storage plates. Compound stock solutions were vortexed before use and observed carefully for any sign of precipitation. Dilutions were as follow: • For 100 μM final compound concentration, compounds were diluted to 5000 μM (5 μl 10 mM compound stock+5 μl DMSO and mixed well by pipetting. • For 30 μM final compound concentration, compounds were diluted to 1500 μM (3 μl 10 mM compound stock+17p DMSO) and mixed well by pipetting. • For 10 μM final compound concentration, compounds were diluted to 500 μM (2 μl 10 mM compound stock+38p DMSO) and mixed well by pipetting. 49p of the stock protein solution was added to each well of a 96-well PCR plate (Fisher cat #1423027). 1 μl of the diluted 50× compounds were added to appropriate wells in the PCR plate using 12-channel pipettor. Reactions were mixed carefully and thoroughly by pipetting up/down with a 200·1 multi-channel pipettor. The plate was sealed well with aluminum plate seal, and stored in drawer at room temperature for 30 min, 2 hour or 24 hrs. 5·1 of 2% formic acid (Fisher cat #A117) in DI H2O was then added to each well followed by mixing with a pipette. The plate was then resealed with aluminum seal and stored on dry ice until analyzed as described below.
The above described assays were analyzed by mass spectrometry according to one of the following two procedures:
The MS instrument is set to positive polarity, 2 GHz resolution, and low mass (1700) mode and allowed to equilibrate for 30 minutes. The instrument is then calibrated, switched to acquisition mode and the appropriate method loaded.
After another 30 minute equilibration time, a blank batch (i.e., buffer) is run to ensure equipment is operating properly. The samples are thawed at 37° C. for 10 minutes, briefly centrifuged, and transfer to the bench top. Wells A1 and H12 are spiked with 1 uL 500 uM internal standard peptide, and the plates centrifuged at 2000×g for 5 minutes. The method is then run and masses of each individual well recorded.
The masses (for which integration data is desired) for each well are pasted into the platemap and exported from the analysis. Masses for the internal standards are exported as well. The data at 50 ppm is extracted for the +19 charge state, and identity of well A1 is assigned using the internal standard spike and integrated. Peak data is exported as a TOF list and the above steps are repeated individually, for the +20, 21, 22, 23, 24, and 25 charge states.
The masses and peak intensities of KRAS G12C protein species were measured using a Dionex RSLCnano system (Thermo Scientific) connected to a Q Exactive Plus mass spectrometer (Thermo Scientific).
[…] of sample was each loaded onto a Aeris™ 3.6 μm WIDEPORE C4 200 Å, LC Column 50×2.1 mm column maintained at 40° C. at a flow rate of 600 μl min^−1 with […] (0.1% formic acid in acetonitrile). The liquid chromatography conditions were 20% solvent B for 1 min, 20% to 60% solvent B for 1.5 min, 60% to 90% solvent for 0.5 min, 90% solvent B for 0.2 min, 90% to 20% solvent B for 0.2 min, and then equilibrated for 1.6 min before the following sample injection. The flow rate was maintained at 600 μl min^−1 throughout the sample analysis.
The mass spectrometer was operated in profile mode at a resolution of 17500, 5 microscans, using 50 msec max injection time and an AGC target of 1e6, and a full mass range from 800-1850 m/z was recorded. The HCD trapping gas was optimized for maximum sensitivity for intact proteins. […]

Question: How did the Binding % turn out when C=CC(=O)N1CCN(c2nc(OCCc3ccccn3)nc3c(F)c(-c4c(O)cccc4F)c(Cl)cc23)CC1 (atropisomer, axis not shown) [Example I-103, (S)-1-(4-(6-chloro-8-fluoro-7-(2-fluoro-6-hydroxyphenyl)-2-(2-(pyridin-2-yl)ethoxy)quinazolin-4-yl)piperazin-1-yl) prop-2-en-1-one] was run?
Answer: The Binding % was “+++ (+++ indicates binding activity greater than 90%)”.

Question: C=CC(=O)N1CCN(c2nc(N3CC(N(C)C)C3)nc3c(F)c(-c4c(O)cccc4F)c(Cl)cc23)CC1 (atropisomer, axis not shown) [Example I-116, (S)-1-(4-(6-chloro-2-(3-(dimethylamino)azetidin-1-yl)-8-fluoro-7-(2-fluoro-6-hydroxyphenyl)quinazolin-4-yl)piperazin-1-yl) prop-2-en-1-one] was tested. Which Binding % did it give?
Answer: Its Binding % is “+++ (+++ indicates binding activity greater than 90%)”.

Question: For C=CC(=O)N1CCN(c2nc(N3CC(N(C)C)C3)nc3c(F)c(-c4c(O)cccc4F)c(Cl)cc23)CC1 (atropisomer, axis not shown) [Example I-117, (R)-1-(4-(6-chloro-2-(3-(dimethylamino)azetidin-1-yl)-8-fluoro-7-(2-fluoro-6-hydroxyphenyl)quinazolin-4-yl)piperazin-1-yl) prop-2-en-1-one], which Binding % is on record?
Answer: The Binding % was “+ (+ indicates binding activity up to 50%)”.

Question: Which Binding % does the source give for C=CC(=O)N1CCN(c2nc(OCCN3CC(F)(F)C3)nc3c(F)c(-c4c(O)cccc4F)c(Cl)cc23)CC1 (atropisomer, axis not shown) [Example I-125, (S)-1-(4-(6-chloro-2-(2-(3,3-difluoro-azetidin-1-yl)ethoxy)-8-fluoro-7-(2-fluoro-6-hydroxyphenyl)quinazolin-4-yl)piperazin-1-yl) prop-2-en-1-one] here?
Answer: The Binding % was “+++ (+++ indicates binding activity greater than 90%)”.

Question: For C=CC(=O)N1CCN(c2nc(OCCN3CC(F)(F)C3)nc3c(F)c(-c4c(O)cccc4F)c(Cl)cc23)CC1 (atropisomer, axis not shown) [Example I-126, (R)-1-(4-(6-chloro-2-(2-(3,3-difluoro-azetidin-1-yl)ethoxy)-8-fluoro-7-(2-fluoro-6-hydroxyphenyl)quinazolin-4-yl)piperazin-1-yl) prop-2-en-1-one], which Binding % is on record?
Answer: Its Binding % is “+ (+ indicates binding activity up to 50%)”.

Question: C=CC(=O)N1CCN(c2nc(OCCN3CCCC3=O)nc3c(F)c(-c4c(C)ccc5[nH]ncc45)c(Cl)cc23)CC1 [Example I-1, 1-(2-(4-(4-acryloylpiperazin-1-yl)-6-chloro-8-fluoro-7-(5-methyl-1H-indazol-4-yl)quinazolin-2-yloxy)ethyl) pyrrolidin-2-one] was tested. Which Binding % did it give?
Answer: The Binding % was “+++ (+++ indicates binding activity greater than 90%)”.

Question: With Cc1ccc2[nH]ncc2c1-c1c(Cl)cc2c(N3CCN(C(=O)/C=C/CN(C)C)CC3)nc(OCCN3CCCC3=O)nc2c1F [Example I-2, (E)-1-(2-(6-chloro-4-(4-(4-(dimethylamino)but-2-enoyl)piperazin-1-yl)-8-fluoro-7-(5-methyl-1H-indazol-4-yl)quinazolin-2-yloxy)ethyl) pyrrolidin-2-one] as the compound, how does the Binding % read?
Answer: The Binding % was “+ (+ indicates binding activity up to 50%)”.

Question: With C=CC(=O)N1CCN(c2nc(NC3CCN(C)CC3)nc3c(F)c(-c4c(O)cccc4F)c(Cl)cc23)CC1 [Example I-3, 1-(4-(6-chloro-8-fluoro-7-(2-fluoro-6-hydroxyphenyl)-2-(1-methylpiperidin-4-ylamino)quinazolin-4-yl)piperazin-1-yl) prop-2-en-1-one] as the compound, how does the Binding % read?
Answer: The Binding % was “+++ (+++ indicates binding activity greater than 90%)”.

Question: C=CC(=O)N1CCN(c2nc(OCC(=O)N(C)C)nc3c(F)c(-c4c(C)ccc5[nH]ncc45)c(Cl)cc23)CC1 [Example I-4, 2-(4-(4-acryloylpiperazin-1-yl)-6-chloro-8-fluoro-7-(5-methyl-1H-indazol-4-yl)quinazolin-2-yloxy)-N,N-dimethyl-acetamide] was tested. Which Binding % did it give?
Answer: The Binding % was “++ (++ indicates binding activity from 50 to 90%)”.

Question: With C=CC(=O)N1CCN(c2nc(NCCO)nc3c(F)c(-c4c(C)ccc5[nH]ncc45)c(Cl)cc23)CC1 [Example I-5, 1-(4-(6-chloro-8-fluoro-2-(2-hydroxyethyl-amino)-7-(5-methyl-1H-indazol-4-yl)quinazolin-4-yl)piperazin-1-yl)prop-2-en-1-one] as the compound, how does the Binding % read?
Answer: Its Binding % is “+ (+ indicates binding activity up to 50%)”.

Question: For C=CC(=O)N1CCN(c2nc(OCCn3ccnc3C)nc3c(F)c(-c4c(C)ccc5[nH]ncc45)c(Cl)cc23)CC1 [Example I-6, 1-(4-(6-chloro-8-fluoro-2-(2-(2-methyl-1H-imidazol-1-yl)ethoxy)-7-(5-methyl-1H-indazol-4-yl)quinazolin-4-yl)piperazin-1-yl)prop-2-en-1-one], which Binding % is on record?
Answer: Its Binding % is “+++ (+++ indicates binding activity greater than 90%)”.

Question: With C=CC(=O)N1CCN(c2nc(OCCn3ccnc3)nc3c(F)c(-c4c(C)ccc5[nH]ncc45)c(Cl)cc23)CC1 [Example I-7, 1-(4-(2-(2-(1H-imidazol-1-yl)ethoxy)-6-chloro-8-fluoro-7-(5-methyl-1H-indazol-4-yl)quinazolin-4-yl)piperazin-1-yl)prop-2-en-1-one] as the compound, how does the Binding % read?
Answer: Its Binding % is “++ (++ indicates binding activity from 50 to 90%)”.

Question: Which Binding % does the source give for C=CC(=O)N1CCN(c2nc(OCC(=O)N(C)C)nc3c(F)c(-c4c(O)cccc4F)c(Cl)cc23)CC1 [Example I-8, 2-(4-(4-acryloyl-piperazin-1-yl)-6-chloro-8-fluoro-7-(2-fluoro-6-hydroxyphenyl)quinazolin-2-yloxy)-N,N-dimethyl-acetamide] here?
Answer: Its Binding % is “+++ (+++ indicates binding activity greater than 90%)”.

Question: C=CC(=O)Oc1cccc(F)c1-c1c(Cl)cc2c(N3CCN(C(=O)C=C)CC3)nc(OCC(=O)N(C)C)nc2c1F [Example I-9, 2-(4-(4-acryloyl-piperazin-1-yl)-6-chloro-2-(2-(dimethylamino)-2-oxoethoxy)-8-fluoroquinazolin-7-yl)-3-fluorophenyl acrylate] was tested. Which Binding % did it give?
Answer: Its Binding % is “++ (++ indicates binding activity from 50 to 90%)”.

Question: Which Binding % does the source give for C=CC(=O)N1CCN(c2nc(OCCN3CCOCC3)nc3c(F)c(-c4c(O)cccc4F)c(Cl)cc23)CC1 [Example I-10, 1-(4-(6-chloro-8-fluoro-7-(2-fluoro-6-hydroxyphenyl)-2-(2-morpholino-ethoxy)quinazolin-4-yl)piperazin-1-yl)prop-2-en-1-one] here?
Answer: Its Binding % is “+++ (+++ indicates binding activity greater than 90%)”.

Question: C=CC(=O)N1CCN(c2nc(C#N)nc3c(F)c(-c4c(C)ccc5[nH]ncc45)c(Cl)cc23)CC1 [Example I-11, 4-(4-acryloyl-piperazin-1-yl)-6-chloro-8-fluoro-7-(5-methyl-1H-indazol-4-yl)quinazoline-2-carbonitrile] was tested. Which Binding % did it give?
Answer: The Binding % was “+++ (+++ indicates binding activity greater than 90%)”.

same assay, conditions: covalent binding to KRAS G12C; compounds of structure (III)

Question: For C=CC(=O)N1C[C@@H](C)N(c2ncnc3c(F)c(-c4c(O)cccc4F)c(Cl)cc23)[C@@H](C)C1 (atropisomer, axis not shown) [III-4, 1-((3S,5R)-4-((R)-6-chloro-8-fluoro-7-(2-fluoro-6-hydroxy-phenyl)quinazolin-4-yl)-3,5-dimethyl-piperazin-1-yl)prop-2-en-1-one], which Binding % is on record?
Answer: The Binding % was “+ (+ indicates binding activity up to 50%)”.

Question: C=CC(=O)N1[C@H](C)CN(c2ncnc3c(F)c(-c4c(O)cccc4F)c(Cl)cc23)C[C@@H]1C (atropisomer, axis not shown) [III-6] was tested. Which Binding % did it give?
Answer: The Binding % was “+++ (+++ indicates binding activity greater than 90%)”.

Question: For C=CC(=O)N1C[C@@H](C)N(c2ncnc3c(F)c(-c4c(O)cccc4F)c(Cl)cc23)[C@@H](C)C1 (atropisomer, axis not shown) [III-36], which Binding % is on record?
Answer: The Binding % was “+++ (+++ indicates binding activity greater than 90%)”.
